Literature values in patent US20130267526A1, “HETEROCYCLIC COMPOUNDS AND THEIR USES” (Amgen, Inc., priority 2010, published 2013).

Experiments:
[1] = test system: mouse model of rheumatoid arthritis; conditions: in vivo
[2] = test system: model of systemic lupus erythematosis; conditions: in vivo
[3] = target: T1, p110δ (Homo sapiens, UniProt O00329)
T1 sequence (O00329 1-1044): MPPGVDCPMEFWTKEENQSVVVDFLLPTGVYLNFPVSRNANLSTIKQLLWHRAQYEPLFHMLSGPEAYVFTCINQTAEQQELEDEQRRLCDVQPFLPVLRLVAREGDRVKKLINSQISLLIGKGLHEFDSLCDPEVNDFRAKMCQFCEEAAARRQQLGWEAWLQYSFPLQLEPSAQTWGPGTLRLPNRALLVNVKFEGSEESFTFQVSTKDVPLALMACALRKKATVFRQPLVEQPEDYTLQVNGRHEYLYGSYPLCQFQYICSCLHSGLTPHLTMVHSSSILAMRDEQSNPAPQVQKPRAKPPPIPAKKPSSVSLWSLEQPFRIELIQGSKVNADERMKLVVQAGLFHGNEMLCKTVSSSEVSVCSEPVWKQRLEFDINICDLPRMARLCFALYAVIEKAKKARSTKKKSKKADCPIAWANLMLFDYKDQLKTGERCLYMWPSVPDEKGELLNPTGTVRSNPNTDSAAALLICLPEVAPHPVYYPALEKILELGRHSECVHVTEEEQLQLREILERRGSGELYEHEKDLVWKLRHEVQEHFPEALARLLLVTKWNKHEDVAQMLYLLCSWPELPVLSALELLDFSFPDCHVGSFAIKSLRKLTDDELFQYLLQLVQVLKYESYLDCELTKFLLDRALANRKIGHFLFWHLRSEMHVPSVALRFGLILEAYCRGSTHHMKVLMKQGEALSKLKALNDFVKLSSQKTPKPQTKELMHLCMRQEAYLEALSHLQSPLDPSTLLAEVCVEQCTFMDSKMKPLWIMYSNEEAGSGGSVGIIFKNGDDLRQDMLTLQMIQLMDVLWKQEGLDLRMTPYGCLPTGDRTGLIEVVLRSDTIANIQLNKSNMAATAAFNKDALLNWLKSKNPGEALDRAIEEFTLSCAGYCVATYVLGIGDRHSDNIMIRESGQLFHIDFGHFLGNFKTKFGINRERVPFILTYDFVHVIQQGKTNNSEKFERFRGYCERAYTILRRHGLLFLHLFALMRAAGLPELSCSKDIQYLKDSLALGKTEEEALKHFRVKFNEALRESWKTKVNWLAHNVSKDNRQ

[4] = test system: protein kinases
[5] = test system: passive cutaneous anaphylaxis (PCA); conditions: absence of functional delta (IC 87114 and p110δ D910A mice)
[6] = test system: ovalbumin-induced airway inflammation

## O=C1NC(=O)/C(=C\c2ccc3nccnc3c2)S1 [AS 605240]
[1]
  efficacy in a mouse model of rheumatoid arthritis: efficacious
[2]
  onset of disease in a model of systemic lupus erythematosis: delay onset of disease

## Cc1ccccc1-n1c(Cn2cnc3c(N)ncnc32)nc2cccc(C)c2c1=O [IC87114]
[3]
  inhibition of p110δ: high nanomolar range (triple digit)
[4]
  activity against any protein kinases tested: no activity
[5]
  passive cutaneous anaphylaxis (PCA): significantly reduced
[6]
  inflammation and disease in murine asthma model: significantly ameliorate
